Where two headings read alike, the source gives them in different places.
How the values were obtained:
HCT116 spheroids = experiment: Spheroid + radiation colony forming cell survival assay (SF), HCT116; type: cell-based; settings: 8 Gy
Protocol: (§1) Multicellular tumour spheroids determination of compound inhibition of pDNA-PK induction following radiation. Tumour spheroids were grown to approximately 0.5 mm in diameter and irradiated with 20 Gy in combination with inhibitor test compounds to determine their potency. Inhibitor concentration for 50% reduction in pDNA-PK induction (IC50) was determined via immunohistochemical staining in spheroid cryosections taken 2 hours following radiation. For cell survival endpoint 8 Gy radiation was used and 3 hours following radiation spheroids were dissociated, counted and plated for colony forming endpoint.
Spheroid+radiation colony forming cell survival assay (SF). Radiation 8 Gy. Drug: serial dilution 5 μM down to 10 nM (12 wells×2 repeat). Spheroids: 5-10 spheroids per well ([…]). HCT116. 5% O2 and 5% CO2. 96 well pate format for assay. Protocol: pre incubate 1 hour with drug, irradiate 8 Gy, post incubate 3 hrs with drug, dissociate spheroids and count cells and plate for colony forming assay. Endpoint: wait 4-7 days and count colonies. Analysis: determine EC50 concentration that increase cell kill by 50% over radiation alone.
(§2) Multicellular tumour spheroids were used to determine potency of test compounds in a 3D tissue environment using inhibition of pDNA-PK induction following radiation or cell survival as the endpoint. For the pDNA-PK endpoint HCT116 or FaDU tumour spheroids were grown to approximately 0.5 mm in diameter and irradiated with 20 Gy in combination with inhibitor test compounds to determine their potency. Experiments were carried out in 96 well plates containing 0.7 mls of MEM media containing 10% FBS and 10 mM glucose under 20% O2 & 5% CO2 at 37° C. Following dilution of compounds 1:1000 from DMSO stocks, compounds were serially diluted from 10 μM down to 3.5 nM and 5-10 spheroids added. 96 well plates were constantly stirred to avoid spheroids settling during the course of the experiment. The inhibitor concentration for 50% reduction in pDNA-PK induction (EC50) was determined via immunohistochemical staining in spheroid cryosections taken 2 hours following radiation using anti-pDNA-PK (ser 2056) and fixed immediately in formalin following sectioning. For cell survival endpoint 8 Gy radiation was used and, 3 hours following radiation, spheroids were dissociated, counted and plated for colony forming endpoint. Data presented in the table compound potency as EC50 [μM].

[1] = Microsomal stability assay, mouse liver microsomes; settings: for microsomal CLint at 0.1 uM: male, CD-1, mouse, liver microsomes, pH 7.4, Microsomal Stability Mouse Clint, 0.1 mg/mL microsomes, 0.1 uM compound
Protocol: Mouse liver microsomes were obtained from a pool of 250 or more male CD-1 mice. […] Final microsomal concentration was 0.1 mg/mL and test compound concentration was 0.1 uM with a maximum of 0.01% DMSO. The test compound was pre-incubated with pooled liver microsomes in phosphate buffer (pH 7.4) for 5 min in a 37° C. shaking water bath. The reaction was initiated by adding NADPH-generating system and incubated for 0, 15, 30, 45, and 60 min. The reaction was stopped by transferring the incubation mixture to acetonitrile/methanol. Samples were then mixed and centrifuged. Supernatants were used for HPLC-MS/MS analysis. The HPLC system consisted of a binary LC pump with autosampler, a C-18 column, and a gradient. Peak areas corresponding to the test compound were recorded. The compound remaining was calculated by comparing the peak area at each time point to time zero. The half-life was calculated from the slope of the initial linear range of the logarithmic curve of compound remaining (%) vs. time, assuming first order kinetics. In addition, the intrinsic clearance (Clint) was calculated from the half-life.

DNA-PK = target: T1, DNA-PK (Homo sapiens, UniProt P78527); experiment: DNA-PK Assay for Biochemical Enzymatic Inhibition (ADP Glo Kinase assay); settings: Table 1
T1 construct: purchased Invitrogen PR9107A
How it was run: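 Human DNA-PK (25 ng) preincubated 15 min with compounds (ten three-fold dilutions) in HEPES pH 7.5, MgCl2, KCl, calf thymus DNA buffer, then substrate 434.4 μM and ATP 64.4 μM (final) for 60 min at room temperature. ADP-Glo luminescence; percent inhibition fitted by four-parameter regression for IC50.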

[2] = target: T2, pDNA-PK ser2056 induction in FaDU spheroids (Homo sapiens, UniProt P78527); experiment: Multicellular tumour spheroid + radiation, pDNA-PK inhibition, FaDU; type: cell-based; settings: 20 Gy
T2 construct: host or cells: FaDu
Protocol: as §1
Spheroid+radiation pDNA-PK. Radiation: 20 Gy. Drug: serial dilution 5 or 10 μM down to 3.5 nM (11 wells). Spheroids: 3-6 spheroids per well (300-500 μm diameter). 20% O2 and 5% CO2. 96 well plate format. Endpoint: fluorescent immunostain pDNA-PK ser2056 and image on microscope. Analysis: determine EC50 concentrations that decreases pDNA-PK induction […] after irradiation.
as §2

[3] = Hepatocyte stability assay, mouse hepatocytes; type: in vitro ADME; settings: for hepatocyte CLint at 1 uM: male, CD-1, mouse, cryopreserved hepatocytes, pH 7.3, 0.7 million cells per mL, 1 uM compound
How it was run: (§3)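 Pooled cryopreserved hepatocytes (male CD-1 mouse, or mixed-gender human donors; ≥10 each) at 0.7 million viable cells/mL in Krebs-Henseleit buffer pH 7.3, with 1 uM compound (≤0.01% DMSO). Incubated up to 2 h at 37 °C/5% CO2, quenched with acetonitrile; parent compound followed by HPLC-MS/MS peak area.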

[4] = Hepatocyte stability assay, human hepatocytes; type: in vitro ADME; settings: for hepatocyte CLint at 1 uM: both sexes, human, cryopreserved hepatocytes, pH 7.3, 0.7 million cells per mL, 1 uM compound
How it was run: as §3

[5] = Microsomal stability assay, human liver microsomes; type: in vitro ADME; settings: for microsomal CLint at 0.1 uM: both sexes, human, liver microsomes, pH 7.4, 0.1 mg/mL microsomes, 0.1 uM compound
Protocol: Samples were then mixed and centrifuged. Supernatants were used for HPLC-MS/MS analysis. […] Peak areas corresponding to the test compound were recorded.

[6] = Example 8, spheroid, read-out: Cell line: HCT116 Colony forming endpoint Surviving Fraction EC50
[7] = Example 9 Study 2, read-out: Spheroid Cell line: HCT116 Colony forming endpoint Surviving Fraction EC50
[8] = Example 8, spheroid, read-out: Cell line: FaDU Immunohistochemical endpoint pDNA-PK inhibition EC50
[9] = Example 9 Study 2, 20% O2, read-out: Spheroid Cell line: FaDU Immunohistochemical endpoint pDNA-PK inhibition EC50

Row | Compound | EC50 (HCT116 spheroids; [6]) | EC50 (HCT116 spheroids; [7]) | Microsomal Stability (mouse) % rem. 60 min [1] | microsomal CLint at 0.1 uM [1] | IC50 (DNA-PK) | EC50 [2, 8] | EC50 [2, 9] | Hepatocyte Stability (mouse) % rem. 120 min [3] | hepatocyte CLint at 1 uM [3] | Hepatocyte Stability (human) % rem. 120 min [4] | hepatocyte CLint at 1 uM [4] | Microsomal Stability (human) % rem. 60 min [5] | microsomal CLint at 0.1 uM [5]
1 | Fc1cn([C@H]2CC[C@@H](Oc3nc(N4CCOCC4)cc4ncccc34)CC2)cn1 [Compound 17a, 4-(5-(((1s,4s)-4-(4-fluoro-1H-imidazol-1-yl)cyclohexyl)oxy)-1,6-naphthyridin-7-yl)morpholine] | 10 to 500 nM | 10 to 500 nM | E (% remaining = 0-25%) | > 116 µL/min/mg | 0.5 to 1 nM | 500 to 1000 nM | 500 to 1000 nM |  |  |  |  |  | 
2 | FC(F)(F)c1cncn1[C@H]1CC[C@@H](Oc2nc(N3CCOCC3)cc3ncccc23)CC1 [Compound 17j, 4-(5-(((1s,4s)-4-(5-(trifluoromethyl)-1H-imidazol-1-yl)cyclohexyl)oxy)-1,6-naphthyridin-7-yl)morpholine] | 500 to 1000 nM | 500 to 1000 nM | E (% remaining = 0-25%) | > 116 µL/min/mg | < 0.5 nM | 500 to 1000 nM | 500 to 1000 nM |  |  |  |  |  | 
3 | Oc1cnc2cc(N3CCOCC3)nc(O[C@H]3CC[C@@H](Nc4ncccn4)CC3)c2c1 [Compound 19a, 7-Morpholino-5-(((1s,4s)-4-(pyrimidin-2-ylamino)cyclohexyl)oxy)-1,6-naphthyridin-3-ol] | 500 to 1000 nM | 500 to 1000 nM | F (% remaining = 25-50%) | > 116 µL/min/mg | 1 to 10 nM | 500 to 1000 nM | 500 to 1000 nM |  |  |  |  |  | 
4 | c1cnc(N[C@H]2CC[C@@H](Oc3nc(N4CCOCC4)cc4ncccc34)CC2)nc1 [Compound 20a, N-((1s,4s)-4-((7-Morpholino-1,6-naphthyridin-5-yl)oxy)cyclohexyl)pyrimidin-2-amine] | 10 to 500 nM | 10 to 500 nM | E (% remaining = 0-25%) | > 116 µL/min/mg | 0.5 to 1 nM | 500 to 1000 nM | 500 to 1000 nM | F (% remaining = 25-50%) | > 8.2 µL/min/1e6 cells | F (% remaining = 25-50%) | > 8.2 µL/min/1e6 cells | F (% remaining = 25-50%) | > 116 µL/min/mg
5 | Cc1cnc(N[C@H]2CC[C@@H](Oc3nc(N4CCOCC4)cc4ncccc34)CC2)nc1 [Compound 32, 5-Methyl-N-((1s,4s)-4-((7-morpholino-1,6-naphthyridin-5-yl)oxy)cyclohexyl)pyrimidin-2-amine] | 10 to 500 nM | 10 to 500 nM | E (% remaining = 0-25%) | > 116 µL/min/mg | < 0.5 nM | 500 to 1000 nM | 500 to 1000 nM |  |  |  |  |  | 
6 | FC(F)(F)c1cnc(N[C@H]2CC[C@@H](Oc3nc(N4CCOCC4)cc4ncccc34)CC2)nc1 [Compound 34, N-((1s,4s)-4-((7-Morpholino-1,6-naphthyridin-5-yl)oxy)cyclohexyl)-5-(trifluoromethyl)pyrimidin-2-amine] | 1000 to 10000 nM | 1000 to 10000 nM | E (% remaining = 0-25%) | > 116 µL/min/mg | 0.5 to 1 nM | 1000 to 10000 nM | 1000 to 10000 nM |  |  |  |  |  | 
7 | O=C(N[C@H]1CC[C@@H](Oc2nc(N3CCOCC3)cc3ncccc23)CC1)c1cncnc1 [Compound 122, N-((1s,4s)-4-((7-Morpholino-1,6-naphthyridin-5-yl)oxy)cyclohexyl)pyrimidine-5-carboxamide] | 500 to 1000 nM | 500 to 1000 nM | G (% remaining = 50-75%) | > 116 µL/min/mg | 1 to 10 nM | 500 to 1000 nM | 500 to 1000 nM | E (% remaining = 0-25%) | > 8.2 µL/min/1e6 cells |  |  |  | 
8 | O=C(N[C@H]1CC[C@@H](Oc2nc(N3CCOCC3)cc3ncccc23)CC1)c1ncccn1 [Compound 123, N-((1s,4s)-4-((7-Morpholino-1,6-naphthyridin-5-yl)oxy)cyclohexyl)pyrimidine-2-carboxamide] | 10 to 500 nM | 10 to 500 nM | G (% remaining = 50-75%) | < 116 µL/min/mg | < 0.5 nM | 10 to 500 nM | 10 to 500 nM | G (% remaining = 50-75%) | < 8.2 µL/min/1e6 cells | H (% remaining = 75-100%) | < 8.2 µL/min/1e6 cells | H (% remaining = 75-100%) | < 116 µL/min/mg
9 | O=C(N[C@H]1CC[C@@H](Oc2nc(N3CCOCC3)cc3ncccc23)CC1)c1ccco1 [Compound 132, N-((1s,4s)-4-((7-Morpholino-1,6-naphthyridin-5-yl)oxy)cyclohexyl)furan-2-carboxamide] | 10 to 500 nM | 10 to 500 nM | E (% remaining = 0-25%) | > 116 µL/min/mg | < 0.5 nM | 10 to 500 nM | 10 to 500 nM |  |  |  |  |  | 

— patent US20240246960A1 (adMare Therapeutics Society, priority 2021, published 2024)
